The record followed here is ChEMBL document CHEMBL1201862, “PubChem BioAssay data set” (2004).

Active and inactive are the calls of the source.

The target of test [1] is Ephrin type-A receptor 4 (Mus musculus, UniProt Q03137). In words: inhibitors of EphA4 binding to KYL peptide, primary screen, biochemical, colorimetric, mouse EphA4 (AID 689). In kind it is functional.
Test [2] is described as follows: cytotoxicity in OVCAR8 ovarian cancer cells, dose response, PAX8 project, cell-based, plate reader, dry powder samples (AID 743197). Format: functional. Conditions: OVCAR-8.
The target in test [3] is Paired box protein Pax-8 (Homo sapiens, UniProt Q06710). In words: inhibitors of PAX8-driven TPO luciferase reporter, dose response, RMG-I cells, cherry-pick (AID 687027).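 Note: luciferase reporter driven by Pax8 target thyroperoxidase promoter measured by SteadyGlo luminescence.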 Format: functional, cell-based. Background: Reporter assays use an easily measured gene product as a stand-in for the process of interest.
Test [4] is described as follows: IGROV1 ovarian cancer cell cytotoxicity, dose response, PAX8 inhibitor project, plate reader, dry powder samples (AID 743043). Format: functional, cell-based. The settings on record: IGROV-1.
The nature of test [5]: non-specific cell cytotoxicity, dose response, cytotoxicity control for PAX8 inhibitor project, plate reader, dry powder samples (AID 743021). Format: functional, cell-based.
In test [6] the target is Disintegrin and metalloproteinase domain-containing protein 17 (Homo sapiens, UniProt P78536). Briefly: exosite inhibitors of ADAM17, dose response, biochemical (AID 743260).
Test [7] is described as follows: microbe, parasite or virus in culture. In kind it is functional. Conditions: Mycobacterium tuberculosis.
Test [8] can be described thus: inhibitors of intracellular T. cruzi replication, confirmation, NIH3T3 host cells, beta-gal luminescence (AID 2044).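 Note: intracellular parasites grown in NIH/3T3 mouse fibroblasts as host cells; luminescent beta-galactosidase reporter signal from transgenic T. cruzi replicating inside host cells; inhibitors lower the luminescence signal.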 Format: functional, cell-based.
The nature of test [9]: cytotoxicity toward NIH3T3 fibroblasts, dose response, counter-screen, cell-based, ATP luminescence, mouse fibroblasts (AID 2010).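 Note: cells exposed to compound for about 90 hours before reading.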 In kind it is functional. For orientation: The purpose of a counterscreen is to sort out artefacts and off-target activity.
Test [10] can be described thus: HEp-2 cell cytotoxicity, dose response, cytotoxicity control for RSV inhibitor project, HTS (AID 2410). Format: functional. Conditions: human respiratory syncytial virus.
Test [11] is described as follows: ADAM10 protease inhibitors, dose response, selectivity assay for ADAM17 exosite inhibitor project, biochemical, FRET peptide substrate, recombinant human ADAM10 (AID 743259).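 Note: ADAM10 enzyme cleaving a FRET peptide substrate.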
Test [12] is described as follows: Jurkat T cell cytotoxicity, dose response, cytotoxicity control for P. falciparum gametocyte viability project, luminescence (AID 1117277).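 Note: potency reflects loss of cellular ATP meaning fewer viable cells.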 In kind it is functional, cell-based.
A short description of test [13]: P. falciparum late gametocyte killing, dose response, luminescence (AID 1117278).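 Note: gametocytes exposed to compound for 24 hours.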 Format: functional, cell-based.
For test [14], the target named is T1, Mannose-6-phosphate isomerase (Homo sapiens, UniProt P34949).
T1 sequence (P34949 whole entry): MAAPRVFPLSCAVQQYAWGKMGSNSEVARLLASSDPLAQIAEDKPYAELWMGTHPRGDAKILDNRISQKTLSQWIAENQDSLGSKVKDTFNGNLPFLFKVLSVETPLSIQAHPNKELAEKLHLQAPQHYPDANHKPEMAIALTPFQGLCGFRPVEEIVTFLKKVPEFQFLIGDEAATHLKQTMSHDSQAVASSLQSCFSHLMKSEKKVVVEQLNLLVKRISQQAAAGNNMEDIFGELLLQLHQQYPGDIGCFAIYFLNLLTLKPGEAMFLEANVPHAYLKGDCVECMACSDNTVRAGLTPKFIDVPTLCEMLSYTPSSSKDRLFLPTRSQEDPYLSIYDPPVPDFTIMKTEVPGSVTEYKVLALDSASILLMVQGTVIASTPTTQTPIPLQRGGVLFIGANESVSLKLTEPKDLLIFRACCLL
In words: human PMI inhibitors, high substrate, primary screen, biochemical, fluorescence intensity, high mannose 6-phosphate (AID 1220).

For test [15], the target named is T2, Heat shock factor protein 1 (Mus musculus, UniProt P38532).
T2 sequence (P38532 whole entry): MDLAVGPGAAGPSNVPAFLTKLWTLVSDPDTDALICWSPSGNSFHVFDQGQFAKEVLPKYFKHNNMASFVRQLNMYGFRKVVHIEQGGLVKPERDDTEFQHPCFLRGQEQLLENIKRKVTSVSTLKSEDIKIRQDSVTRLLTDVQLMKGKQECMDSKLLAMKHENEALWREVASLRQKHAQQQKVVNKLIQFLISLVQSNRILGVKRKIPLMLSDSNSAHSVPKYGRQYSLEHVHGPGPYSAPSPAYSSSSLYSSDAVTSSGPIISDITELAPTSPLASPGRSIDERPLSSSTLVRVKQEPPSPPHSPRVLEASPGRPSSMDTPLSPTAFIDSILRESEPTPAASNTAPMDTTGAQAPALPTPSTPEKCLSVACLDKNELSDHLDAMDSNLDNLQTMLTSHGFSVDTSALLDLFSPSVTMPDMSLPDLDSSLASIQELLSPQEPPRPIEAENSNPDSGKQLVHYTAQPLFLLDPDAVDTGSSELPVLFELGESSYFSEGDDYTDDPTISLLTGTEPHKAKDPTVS
In words: inhibition of MG132-induced HSE-luciferase signal, confirmation, cell-based, NIH3T3, luminescence, dose retest (AID 2382).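 Note: NIH3T3 fibroblasts with HSF1-driven luciferase reporter stressed by proteasome inhibitor MG132; luminescence from HSF1-driven luciferase expression after 8 hours of MG132 stress.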 Format: functional.

Test [16] relates to CHO. In words: cytotoxicity in TLR9-MyD88 CHO cells, dose response, cytotoxicity control for TLR9-MyD88 binding inhibitor project, cell-based, luminescence (AID 588339).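 Note: CHO cells stably coexpressing TLR9 and MyD88 fusions from primary screen; compound exposure lasted 48 hours before viability readout.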 Format: functional, hamster. Conditions: Cricetulus griseus.
Test [17] is described as follows: cells. Format: functional.
Test [18] deals with Beta Lactamase (Pseudomonas aeruginosa, UniProt Q932Y6). Briefly: beta-lactamase reporter inhibitor potency, dose response, artefact control for TLR9-MyD88 binding inhibitor project, BLA reporter cells, FRET fluorescence (AID 588341).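 Note: cell based assay in CHO-K1 cells stably expressing beta-lactamase.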 In kind it is cell-based.
The nature of test [19]: THP-1 cell cytotoxicity, dose response, cytotoxicity control for non-replicating M. tuberculosis project (AID 489025). Format: functional.
The target of test [20] is T3, Protein RecA (Mycobacterium tuberculosis, UniProt P9WHJ3).
T3 sequence (P9WHJ3 whole entry): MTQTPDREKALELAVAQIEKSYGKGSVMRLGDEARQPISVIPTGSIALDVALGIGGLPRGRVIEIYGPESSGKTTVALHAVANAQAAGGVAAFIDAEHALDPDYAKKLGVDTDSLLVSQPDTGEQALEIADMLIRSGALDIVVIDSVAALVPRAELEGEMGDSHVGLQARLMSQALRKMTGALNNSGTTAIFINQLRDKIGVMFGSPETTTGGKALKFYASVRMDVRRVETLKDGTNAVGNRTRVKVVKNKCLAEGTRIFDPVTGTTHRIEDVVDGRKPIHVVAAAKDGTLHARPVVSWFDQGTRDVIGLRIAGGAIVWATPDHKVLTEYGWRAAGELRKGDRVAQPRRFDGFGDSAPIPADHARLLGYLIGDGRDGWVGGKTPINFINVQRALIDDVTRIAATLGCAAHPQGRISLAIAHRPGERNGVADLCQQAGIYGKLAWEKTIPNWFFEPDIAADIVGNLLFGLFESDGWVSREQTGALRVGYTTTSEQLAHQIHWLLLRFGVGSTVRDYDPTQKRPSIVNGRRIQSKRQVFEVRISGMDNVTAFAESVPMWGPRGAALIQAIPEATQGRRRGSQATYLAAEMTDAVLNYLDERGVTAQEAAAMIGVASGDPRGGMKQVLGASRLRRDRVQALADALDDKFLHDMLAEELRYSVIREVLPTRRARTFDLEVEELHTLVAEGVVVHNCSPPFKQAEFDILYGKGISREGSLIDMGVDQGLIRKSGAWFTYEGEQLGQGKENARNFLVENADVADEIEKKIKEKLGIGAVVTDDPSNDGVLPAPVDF
Briefly: Fluorescence Cell-Free Homogeneous Dose Retest to Identify Inhibitors of RecA-Intein Splicing Activity. [Related pubchem assays (depositor defined):AID2097, AID2223, AID489010, AID492950]. Format: functional.

Test [21] concerns the target T4, Replicative DNA helicase DnaB (Mycobacterium tuberculosis, UniProt P9WMR3).
T4 sequence (P9WMR3 whole entry): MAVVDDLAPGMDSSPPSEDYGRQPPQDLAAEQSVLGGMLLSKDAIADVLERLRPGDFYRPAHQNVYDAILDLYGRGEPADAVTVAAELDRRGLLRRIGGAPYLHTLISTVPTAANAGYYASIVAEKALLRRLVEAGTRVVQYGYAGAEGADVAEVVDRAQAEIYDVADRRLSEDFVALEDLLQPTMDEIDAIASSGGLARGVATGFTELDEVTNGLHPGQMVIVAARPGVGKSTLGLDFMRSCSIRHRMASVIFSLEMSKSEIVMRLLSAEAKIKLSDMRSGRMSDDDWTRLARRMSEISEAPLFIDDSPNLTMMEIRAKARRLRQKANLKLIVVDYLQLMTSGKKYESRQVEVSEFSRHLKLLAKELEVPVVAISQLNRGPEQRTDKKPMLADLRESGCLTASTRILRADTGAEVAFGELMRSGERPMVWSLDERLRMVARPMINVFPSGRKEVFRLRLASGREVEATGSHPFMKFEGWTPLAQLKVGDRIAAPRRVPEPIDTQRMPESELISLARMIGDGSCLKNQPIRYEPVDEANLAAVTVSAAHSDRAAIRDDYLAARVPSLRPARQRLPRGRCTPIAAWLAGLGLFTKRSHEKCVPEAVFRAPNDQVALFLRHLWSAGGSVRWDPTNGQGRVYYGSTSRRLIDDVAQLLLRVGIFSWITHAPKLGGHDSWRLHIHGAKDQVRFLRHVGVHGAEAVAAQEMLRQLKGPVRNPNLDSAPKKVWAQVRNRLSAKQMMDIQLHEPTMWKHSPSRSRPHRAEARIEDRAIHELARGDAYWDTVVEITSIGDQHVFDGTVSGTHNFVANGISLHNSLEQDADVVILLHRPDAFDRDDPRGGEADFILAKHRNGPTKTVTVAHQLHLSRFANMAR
Briefly: DnaB intein splicing inhibitors, dose response, biochemical, cell-free fluorescence (AID 449749). In kind it is functional.

Sequence of Ephrin type-A receptor 4 (Q03137 whole entry): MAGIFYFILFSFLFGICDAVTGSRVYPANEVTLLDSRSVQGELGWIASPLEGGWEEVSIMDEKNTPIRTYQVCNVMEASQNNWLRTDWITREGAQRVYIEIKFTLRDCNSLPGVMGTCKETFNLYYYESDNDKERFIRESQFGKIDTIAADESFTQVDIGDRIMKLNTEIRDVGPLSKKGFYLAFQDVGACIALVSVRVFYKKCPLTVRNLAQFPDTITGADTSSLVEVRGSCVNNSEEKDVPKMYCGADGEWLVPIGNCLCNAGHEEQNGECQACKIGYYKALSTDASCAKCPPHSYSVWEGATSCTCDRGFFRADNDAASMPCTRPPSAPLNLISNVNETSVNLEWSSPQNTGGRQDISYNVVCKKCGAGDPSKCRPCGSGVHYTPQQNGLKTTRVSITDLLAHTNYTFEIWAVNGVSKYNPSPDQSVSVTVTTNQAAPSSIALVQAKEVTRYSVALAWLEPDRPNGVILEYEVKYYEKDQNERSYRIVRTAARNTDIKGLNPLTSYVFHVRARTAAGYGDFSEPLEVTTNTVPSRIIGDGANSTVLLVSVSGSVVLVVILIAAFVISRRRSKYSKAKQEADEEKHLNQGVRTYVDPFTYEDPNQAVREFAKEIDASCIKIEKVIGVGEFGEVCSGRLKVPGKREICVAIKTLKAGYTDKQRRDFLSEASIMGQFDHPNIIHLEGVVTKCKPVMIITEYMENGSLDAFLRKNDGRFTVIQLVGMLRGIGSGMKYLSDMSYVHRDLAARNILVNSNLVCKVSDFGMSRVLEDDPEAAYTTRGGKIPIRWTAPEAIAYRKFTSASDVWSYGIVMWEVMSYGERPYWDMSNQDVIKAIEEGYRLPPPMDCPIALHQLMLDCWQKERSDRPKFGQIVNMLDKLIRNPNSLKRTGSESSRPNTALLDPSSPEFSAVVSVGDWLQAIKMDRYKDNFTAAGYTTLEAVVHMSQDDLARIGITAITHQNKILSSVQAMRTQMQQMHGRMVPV
Sequence of Disintegrin and metalloproteinase domain-containing protein 17 (P78536 whole entry, the tested form may be a part): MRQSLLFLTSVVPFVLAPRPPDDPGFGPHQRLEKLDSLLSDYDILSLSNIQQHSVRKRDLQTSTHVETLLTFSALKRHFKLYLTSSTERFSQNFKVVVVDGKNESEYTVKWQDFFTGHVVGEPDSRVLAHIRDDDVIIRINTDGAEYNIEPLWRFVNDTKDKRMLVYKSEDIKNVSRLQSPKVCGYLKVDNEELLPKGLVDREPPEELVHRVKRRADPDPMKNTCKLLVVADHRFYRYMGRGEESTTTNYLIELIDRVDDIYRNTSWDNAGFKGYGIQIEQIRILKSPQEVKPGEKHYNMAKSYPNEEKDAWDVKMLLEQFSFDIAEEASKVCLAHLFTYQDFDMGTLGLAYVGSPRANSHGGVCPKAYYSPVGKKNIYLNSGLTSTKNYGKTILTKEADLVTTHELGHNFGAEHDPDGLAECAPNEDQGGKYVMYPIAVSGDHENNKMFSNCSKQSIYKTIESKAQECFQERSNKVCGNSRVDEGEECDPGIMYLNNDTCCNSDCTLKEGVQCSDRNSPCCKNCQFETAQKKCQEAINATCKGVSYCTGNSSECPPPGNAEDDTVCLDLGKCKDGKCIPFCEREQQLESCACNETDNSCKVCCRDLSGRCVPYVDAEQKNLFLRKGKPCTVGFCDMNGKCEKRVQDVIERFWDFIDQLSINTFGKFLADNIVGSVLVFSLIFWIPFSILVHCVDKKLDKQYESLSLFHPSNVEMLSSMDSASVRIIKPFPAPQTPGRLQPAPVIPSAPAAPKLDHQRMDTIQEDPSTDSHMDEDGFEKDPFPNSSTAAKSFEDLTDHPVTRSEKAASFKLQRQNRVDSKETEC
Sequence of Paired box protein Pax-8 (Q06710 whole entry): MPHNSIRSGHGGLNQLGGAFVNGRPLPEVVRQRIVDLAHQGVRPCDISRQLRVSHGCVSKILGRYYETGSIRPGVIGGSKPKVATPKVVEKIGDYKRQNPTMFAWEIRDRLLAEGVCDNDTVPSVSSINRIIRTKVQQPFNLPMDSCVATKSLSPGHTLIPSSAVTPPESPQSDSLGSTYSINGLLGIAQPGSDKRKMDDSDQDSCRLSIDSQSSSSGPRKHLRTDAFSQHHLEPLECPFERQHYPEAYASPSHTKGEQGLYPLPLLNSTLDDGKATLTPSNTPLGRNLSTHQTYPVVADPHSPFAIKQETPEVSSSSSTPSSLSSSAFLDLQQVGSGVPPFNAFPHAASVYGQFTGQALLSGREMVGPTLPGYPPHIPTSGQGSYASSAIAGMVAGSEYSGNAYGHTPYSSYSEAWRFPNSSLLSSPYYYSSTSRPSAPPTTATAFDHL
Sequence of Beta Lactamase (Q932Y6 whole entry): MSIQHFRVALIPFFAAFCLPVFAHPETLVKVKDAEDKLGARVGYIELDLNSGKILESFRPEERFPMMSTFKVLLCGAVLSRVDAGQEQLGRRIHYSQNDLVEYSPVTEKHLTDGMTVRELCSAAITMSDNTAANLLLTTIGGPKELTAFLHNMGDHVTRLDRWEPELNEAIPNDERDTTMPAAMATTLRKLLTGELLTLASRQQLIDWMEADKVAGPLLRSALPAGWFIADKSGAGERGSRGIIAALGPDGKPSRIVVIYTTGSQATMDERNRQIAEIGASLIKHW

Turning to `Cn1cc([N+](=O)[O-])c(C(=O)Nc2ccc3c(c2)OCCO3)n1`, the IC50 (usually the concentration at which inhibition is half-maximal) in [1] is recorded as > 100 µM (not active).

As to `C[C@@H]1CN([C@H](C)CO)C(=O)c2cc(NC(=O)Nc3ccc(C(F)(F)F)cc3)ccc2O[C@@H](C)CCCCO[C@H]1CN(C)Cc1ccc2c(c1)OCO2`, the AC50 (commonly the concentration giving half of the maximal activity seen) in [2] was 31.6 µM (active); in test [3], 7.63 µM (active); in test [4] it was 26.7 µM (active); in [5] it was 66.4 µM (active).

As for `CCOC(=O)c1sc(NC(=O)CN2C(=O)NC3(CC(C)CC(C)(C)C3)C2=O)cc1C` (stereo unspecified), the IC50 in [6] is > 69.5 µM (inactive); in [11], 10.6 µM (inactive). The CC50 in test [7] was 30.6 µM (active); in test [10], 14.9 µM (active). In addition, the EC50 (as a rule, the midpoint of the concentration-response curve) in [8] was 2.17 µM (active); in test [9], 9.25 µM (active).

As for `CCOC(=O)c1ccc(NC(=O)CCOc2ccc(C)cc2)cc1`, the IC50 in test [12] was > 83.3 µM (inactive); in test [13], > 109 µM (inactive).

In the case of `COc1ccc(C(=O)C[n+]2cc(-c3ccc(OC)cc3)n3c2CCCC3)cc1`, the IC50 was > 83.3 µM (inactive) in test [12] and > 109 µM (inactive) in [13]. Besides, the EC50 in test [8] is 0.243 µM (active); in test [9] it was > 60 µM (not active).

In the case of `CN(Cc1ccc(F)cc1)C(=O)c1cccc(OCc2ccccc2)c1`, the IC50 was > 69.5 µM (inactive) in test [6] and 21.5 µM (inactive) in [11].

For the molecule `Cc1sc2c(=O)n3c(nc2c1C(=O)NC1CCCCC1)CCCCC3`, the IC50 in test [12] was > 83.3 µM (inactive); in test [13], > 109 µM (inactive).

Regarding `COCCO/C(O)=C1\C(C)=NC2(O)c3ccccc3C(=O)C12O` (stereo unspecified), the concentration for half-maximal inhibition (IC50) in test [14] is listed as > 50 µM (not active).

For the molecule `Cc1noc(C)c1C(=O)OCC(=O)Nc1ccccc1Oc1ccccc1`, the IC50 in [6] and in test [11] was > 69.5 µM (inactive) throughout.

As for `CCS(=O)(=O)c1ncc(Cl)c(C(=O)Nc2ccc(C)cc2)n1`, the figures for the AC50 in test [3], in [21] and in test [5] were 17.2 µM (active), 5.56 µM (active) and 34.9 µM (active), respectively. Besides, the half-maximal effective concentration (EC50) is 5.18 µM (inconclusive) in test [15], 2.31 µM (active) in [8], 4.9 µM (active) in test [9] and 6.94 µM (active) in test [20]. The results for the concentration for half-maximal inhibition (IC50) in test [16], in [17] and in test [18] were 3.98 µM (active), 5.21 µM (active) and 7.65 µM (active), respectively. In addition, the CC50 in test [19] is 21 µM (active).

Take `C=CCn1c(SCC(=O)Nc2ncc(Cc3cc(C(F)(F)F)ccc3Cl)s2)nnc1-c1ccncc1`: the concentration for half-maximal inhibition (IC50) in [1] is on record as > 100 µM (not active).

Turning to `COc1ccc(NS(=O)(=O)c2ccc(OC)c(NC(=O)CCC3CCCC3)c2)cc1`, the IC50 in test [6] and in test [11] was > 69.5 µM (inactive) in each case.

For `CSc1ccccc1/N=C/c1nc(-c2ccccc2)oc1O`, the IC50 in [1] was 37.6 µM (active).

For `CCOC(=O)CN1C2=NCCN2c2ccccc21`, the IC50 was > 83.4 µM (inactive) in test [12] and > 109 µM (inactive) in [13].
